Assay results taken from patent publication US20190038756A1, “COMPOSITIONS INCLUDING BENZENESULFONAMIDE-CONTAINING NON-STEROIDAL ANTI-INFLAMMATORY DRUGS, SILK FIBROIN, AND A GELLING AGENT AND USES THEREOF” (Cocoon Biotech Inc., priority 2016, published 2019).
Converted amounts (≈) assume the structure as drawn. Counter-ions that a name gives are not always drawn. Like-named read-outs stand apart in the source and are kept apart here.

Experiments:
[1] = In vitro release study of NSAIDs from silk-PEG hydrogels (UV detection); format: physicochemical; settings: for time within which celecoxib was released / sustained release (e.g., greater than one week) using a silk-fibroin hydrogel delivery platform: silk-fibroin hydrogel; for time within which celecoxib was released: 6.5% (w/v) fibroin (FIG. 5); for release of free drug without encapsulation in silk-fibroin hydrogels: no hydrogel
Protocol: Lyophilized silk was dissolved with ultrapure water to obtain concentrations of 1.3, 3.6, 7.0, 13.0, and 23.0% (w/v). Polyethylene glycol (PEG) with molecular weights of 300 and 400 Da (PEG300 and PEG400) was diluted with ultrapure water when necessary. Celecoxib (a benzenesulfonamide-containing NSAID) and other NSAIDs which are not benzenesulfonamide-containing NSAIDs (tenoxicam, meloxicam, and lomoxicam) were dissolved with 80% (v/v) PEG400 solution to obtain low concentration solutions (<40 mg/mL) or with 100% (v/v) PEG300 to obtain high concentration solutions (>100 mg/mL). Diclofenac sodium salt (another NSAID that is not a benzenesulfonamide-containing NSAID) was dissolved in the aqueous silk solution.
The PEG or PEG/drug solution was mixed with silk solution by pipetting up and down gently and aliquoted into a 2-mL Eppendorf tube. Each tube was left at 37° C. to gel overnight (Wang et al., Acta Biomater. 12:51-61, 2015).
To the 2-mL Eppendorf tube containing fibroin-drug hydrogel, 1.95 mL of release medium was added. The release medium contained 1× phosphate buffer, pH 7.4, 0.1% (v/v) Tween-80, and 0.02% (w/v) sodium azide. The samples were incubated at 37° C. with gentle shaking. The release medium was changed after 24 hours and then approximately once every 3 days. The release medium was subjected to UV detection using a UV transparent bottom plate (Corning) at the respective wavelengths listed in Table 8. Control release medium was measured under the same condition for background subtraction. A calibration curve was generated for each drug by dissolving a known amount of each drug in the release medium, and making dilutions with the release medium.

[2] = Solubility of celecoxib in release media; format: physicochemical; settings: release medium (phosphate buffered saline with Tween-80), aqueous with cosolvent or surfactant or cyclodextrin; 1× phosphate buffered saline, 2% (v/v) Tween-80, 0.05% sodium azide
[3] = AUC at NOAEL oral dose from oral Celecoxib NDA package; settings: in vivo, oral NOAEL dose 20 mg/kg, read-out: Extrapolated AUC for 25 days
[4] = oral NOAEL dose 20 mg/kg, cited from earlier work
[5] = Gelation of silk fibroin hydrogels with varying gelling agents (25° C., 37° C., autoclave); format: physicochemical
[6] = tested on: TNF-α in human whole blood; experiment: Human whole blood activation: TNF-α by ELISA after 24 hours at 37° C., with or without LPS; format: cell-based
Source text: Acute inflammatory responses are initiated via activation of a mammal's innate immune system. Human whole blood contains the principle repertoire of immune cells responsible for initiating an innate driven inflammatory response. Activation of inflammation in human whole blood is a useful in vitro assay for assessing the inflammatory potential of silk-fibroin hydrogel constituents. For this reason, whole human blood was exposed to silk fibroin solutions, three dimensional silk fibroin hydrogels, and a variety of different gelling agents for 24 hours at 37° C. and assessed for activation of inflammation.
Lipopolysaccharide (LPS) was used as a positive stimulator of the inflammatory marker TNF-α, in whole blood. Experiments to assess the inflammatory potential of formulation constituents were conducted both in the absence and the presence of lipopolysaccharide (LPS). The later condition to assess whether any formulation constituent had the activity of potentiating a known inflammatory signal. In each experiment, plasma was collected at the end of the incubation period and analyzed for TNF-α via enzyme-linked immunosorbent assay (ELISA).

[7] = absence of celecoxib, RT curing
[8] = absence of celecoxib, autoclaving

Compound: Cc1ccc(-c2cc(C(F)(F)F)nn2-c2ccc(S(N)(=O)=O)cc2)cc1 [Celecoxib, 4-[5-(4-methylphenyl)-3-(trifluoromethyl)pyrazol-1-yl]benzenesulfonamide]
- extended time period of celecoxib release ([1]; all hydrogels of FIG. 7): ≤ 56 days
- duration of sustained celecoxib release ([1]; fibroin concentrations in the hydrogel […] (w/v) to 6.5% (w/v)): sustained over two months
- period over which celecoxib release occurs ([1]; hydrogel fibroin concentration 0.65% (w/v) (FIG. 6)): 15 days
- period over which celecoxib release occurs ([1]; hydrogel fibroin concentration 1.3% (w/v) (FIG. 6)): 30 days
- period over which celecoxib release occurs ([1]; hydrogel fibroin concentration 12.5% (w/v) (FIG. 6)): 41 days
- period over which celecoxib release occurs ([1]; hydrogel fibroin concentration […] (w/v) (FIG. 6)): 41 days
- period over which celecoxib release occurs ([1]; no fibroin/“free” celecoxib sample (0% silk-fibroin) (FIG. 6)): 6 days
- time within which celecoxib was released ([1]; celecoxib 0.09375% (w/v)): ≤ 30 days
- time within which celecoxib was released ([1]; celecoxib 0.1875% (w/v)): ≤ 30 days
- time within which celecoxib was released ([1]; celecoxib 0.375% (w/v)): ≤ 75 days
- duration of slow release of celecoxib at ˜40 μg a day ([1]; silk-fibroin hydrogels): more than 75 days
- slow release rate of celecoxib from silk-fibroin hydrogels ([1]; silk-fibroin hydrogels): ~40 μg a day
- solubility [2]: 850 µg/mL (≈ 2230 µM)
- AUC ([3]; Female (F)): 978 µg·h/mL
- AUC ([3]; Male (M)): 468 µg·h/mL
- AUC at Day 1 ([4]; Female (F)): 39.1 µg·h/mL
- AUC at Day 1 ([4]; Male (M)): 18.7 µg·h/mL

Compound: O=C(O)Cc1ccccc1Nc1c(Cl)cccc1Cl [Diclofenac sodium salt]
- time within which drug was completely released ([1]; from all the tested silk-fibroin hydrogels (FIGS. 2-4), 37° C., phosphate buffer pH 7.4, 0.1% Tween-80): ≤ 4 days
- release of free drug without encapsulation in silk-fibroin hydrogels [1]: released within one day
- sustained release (e.g., greater than one week) using a silk-fibroin hydrogel delivery platform [1]: could not be achieved

Compound: CN1C(C(=O)Nc2ccccn2)=C(O)c2sc(Cl)cc2S1(=O)=O [Lomoxicam, lomoxicam]
- day at which cumulative release plateaued ([1]; drug with no fibroin (FIG. 1)): 2 days
- day at which cumulative release plateaued ([1]; from silk-fibroin hydrogels, all tested formulations (FIG. 1), 37° C., phosphate buffer pH 7.4, 0.1% Tween-80): 6 days
- release of free drug without encapsulation in silk-fibroin hydrogels [1]: released within one day
- sustained release (e.g., greater than one week) using a silk-fibroin hydrogel delivery platform [1]: could not be achieved

Compound: CC(O)CO (stereo not drawn) [Propylene glycol]
- Minimum gelling agent concentration eliciting gelation ([5]; 87 mg/mL celecoxib, RT): 30 % (v/v)
- Minimum gelling agent concentration eliciting gelation ([5]; 87 mg/mL celecoxib, autoclave): 10 % (v/v)
- Minimum gelling agent concentration eliciting gelation [5, 7]: 40 % (v/v)
- Minimum gelling agent concentration eliciting gelation [5, 8]: 20 % (v/v)

Compound: OCC(O)CO [glycerol]
- Minimum gelling agent concentration eliciting gelation ([5]; 87 mg/mL celecoxib, curing temperature 37° C.): 40 % (v/v)
- Minimum gelling agent concentration eliciting gelation ([5]; absence of celecoxib, 37° C.): 40 % (v/v)
- Minimum gelling agent concentration eliciting gelation [5, 7]: 50 % (v/v)
- Minimum gelling agent concentration eliciting gelation [5, 8]: 30 % (v/v)

Compound: OC[C@@H](O)[C@@H](O)[C@H](O)[C@@H](O)CO [sorbitol]
- Inflammatory potential (TNF-α) in human whole blood ([6]; +/−LPS, relevant concentrations): non-inflammatory
- Gelling agent concentration at which a hydrogel formed ([5]; absence of celecoxib, 37° C.): 30 % (w/v)
- Gelling agent concentration at which a hydrogel formed ([5]; absence of celecoxib, RT): 30 % (w/v)

Compound: Glycerol formal
- Minimum gelling agent concentration eliciting gelation [5, 7]: 40 % (v/v)
- Minimum gelling agent concentration eliciting gelation [5, 8]: 20 % (v/v)

Compound: silk fibroin: soluble silk fibroin samples isolated using several different degumming techniques
- Inflammatory signal (TNF-α) in human whole blood ([6]; absence of co-added LPS, 24 hours at 37° C.): did not exhibit inflammatory signals beyond low baseline responses
- TNF-α response in human whole blood ([6]; presence of LPS, 24 hours at 37° C.): generally reduced compared to the response to LPS alone
